The term melting point denotes the temperature of the solid-liquid transition.

The test system of series [1] is Tetranychus urticae Koch. Nature of the series: Mite adulticide (MI) test. The class given is in vivo. The note with it: adult mites on cowpea leaves sprayed to run off with 1000 ppm solution; mites transferred one day after treatment, examined five days later. The procedure: (§1) The remaining examples relate to the pesticidal use of compounds of this invention. In all these examples a stock solution for the compounds was prepared at 3000 ppm by dissolving 0.3 grams of the compound to be tested in 10 mL of acetone and adding 90 mL of distilled water plus four drops of ethoxylated sorbitan monolaurate, or a similar suitable wetting agent. For each example that follows, this stock solution was used and the specified dilutions made. All the tests discussed below, which involved treatment with compounds of this invention, were always repeated with controls, in which the active compound was not provided, to permit a comparison upon which the percent control was calculated. One day before treatment, a “figure 8” configuration of tree tanglefoot was applied to each of two cowpea primary leaves, one from each of two plants in a pot. In each Figure, the circle nearer the stem was designated for the mite ovicide/larvicide test and the circle further from the stem was designated for the mite adulticide test. Groups of adult mites (Tetranychus urticae Koch) were transferred into ovicide circles one day before treatment and the females were allowed to deposit eggs until one hour before treatment when they were removed. Plants were sprayed to run off with a 1000 ppm solution diluted from the 3000 ppm stock solution. […]

Series [2] relates to Tetranychus urticae Koch. Nature of the series: Mite ovicide/larvicide (MIOVL) test. The class given is in vivo. Conditions: eggs/immature mites on cowpea leaves sprayed with 1000 ppm solution; examined nine days following treatment; effect larvicidal (L). The protocol: as §1

`COc1ccc(-c2ccccc2)cc1[N+]([O-])=NC(=O)OC(C)C` [Compound 1, 1-Methylethyl 2-(4-methoxy-[1,1′-biphenyl]-3-yl)diazenecarboxylate 2-oxide] showed a melting point of 102 to 106 °C. In addition, the MI percent control in series [1] is 100 % Control. Also, the “MIOVL (L) percent control” value in series [2] was found to be 100 % Control.

For the origin of these results see patent publication US7511029B2, “Pesticidal diazene oxide carboxylates” (Chemtura Corporation, priority 2007, dated 2009).
